Measured values published in ChEMBL document CHEMBL1201862, “PubChem BioAssay data set” (2004).
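Cultured in 96-well plates, cells were exposed to test compound for 48 hours across five concentrations. Here, GI50 denotes the concentration required for 50% inhibition of growth.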 Calls of active or inactive are those of the source. Cut-off read from the data, not from the text of the source: active = GI50 up to about 1.1 µM and inactive = higher.

Key:
Assay in all cases: NCI-60 cell line screen, 48 h
Hs-578T = system: Hs-578T
NCI-H23 = system: NCI-H23
EKVX = system: EKVX
OVCAR-5 = system: OVCAR-5
NCI-H226 = system: NCI-H226
SK-MEL-2 = system: SK-MEL-2
T47D = system: T47D
SW-620 = system: SW-620
OVCAR-8 = system: OVCAR-8
MOLT-4 = system: MOLT-4
U-251 = system: U-251
TK-10 = system: TK-10
NCI/ADR-RES = system: NCI/ADR-RES
RPMI-8226 = system: RPMI-8226
PC-3 = system: PC-3
UO-31 = system: UO-31
786-0 = system: 786-0
HCC 2998 = system: HCC 2998
CAKI-1 = system: CAKI-1
OVCAR-4 = system: OVCAR-4
SK-OV-3 = system: SK-OV-3
COLO 205 = system: COLO 205
BT-549 = system: BT-549
KM12 = system: KM12
CCRF-CEM = system: CCRF-CEM
RXF 393 = system: RXF 393
Malme-3M = system: Malme-3M
SN12C = system: SN12C
SK-MEL-28 = system: SK-MEL-28
HL-60 = system: HL-60
HCT-15 = system: HCT-15
MDA-MB-231 = system: MDA-MB-231
K562 = system: K562
A549 = system: A549
SNB-19 = system: SNB-19
SR = system: SR
MDA-N = system: MDA-N
NCI-H460 = system: NCI-H460
HT-29 = system: HT-29
DU-145 = system: DU-145
OVCAR-3 = system: OVCAR-3
MDA-MB-435 = system: MDA-MB-435
SF-539 = system: SF-539
M14 = system: M14
LOX IMVI = system: LOX IMVI
HCT-116 = system: HCT-116
HOP-92 = system: HOP-92
IGROV-1 = system: IGROV-1
SNB-75 = system: SNB-75
HOP-62 = system: HOP-62
NCI-H522 = system: NCI-H522
SF-295 = system: SF-295
SK-MEL-5 = system: SK-MEL-5
SF-268 = system: SF-268
UACC-257 = system: UACC-257
UACC-62 = system: UACC-62
A498 = system: A498
ACHN = system: ACHN
MCF7 = system: MCF7

## COC(=O)Nc1nc2cc(Oc3ccc4nc(NC(=O)OC)[nH]c4c3)ccc2[nH]1
Hs-578T
  GI50: 0.975 µM (active)
NCI-H23
  GI50: 1.81 µM (inactive)
EKVX
  GI50: 3.67 µM (inactive)
OVCAR-5
  GI50: 9.02 µM (inactive)
NCI-H226
  GI50: 0.925 µM (active)
SK-MEL-2
  GI50: 1.34 µM (inactive)
T47D
  GI50: 2.59 µM (inactive)
SW-620
  GI50: 0.855 µM (active)
OVCAR-8
  GI50: 1.41 µM (inactive)
MOLT-4
  GI50: 1 µM (active)
U-251
  GI50: 0.681 µM (active)
TK-10
  GI50: 4.78 µM (inactive)
NCI/ADR-RES
  GI50: 4.33 µM (inactive)
RPMI-8226
  GI50: 0.929 µM (active)
PC-3
  GI50: 0.419 µM (active)
UO-31
  GI50: 11.9 µM (inactive)
786-0
  GI50: 0.435 µM (active)
HCC 2998
  GI50: 0.984 µM (active)
CAKI-1
  GI50: 2.32 µM (inactive)
OVCAR-4
  GI50: 1.77 µM (inactive)
SK-OV-3
  GI50: 1.45 µM (inactive)
COLO 205
  GI50: 0.708 µM (active)
BT-549
  GI50: 7.01 µM (inactive)
KM12
  GI50: 0.376 µM (active)
CCRF-CEM
  GI50: 0.371 µM (active)
RXF 393
  GI50: 0.74 µM (active)
Malme-3M
  GI50: 0.61 µM (active)
SN12C
  GI50: 1.78 µM (inactive)
SK-MEL-28
  GI50: 0.713 µM (active)
HL-60
  GI50: 0.608 µM (active)
HCT-15
  GI50: 1.28 µM
MDA-MB-231
  GI50: 1.68 µM (inactive)
K562
  GI50: 0.942 µM (active)
A549
  GI50: 2.25 µM (inactive)
SNB-19
  GI50: 1.29 µM (inactive)
SR
  GI50: 0.252 µM (active)
MDA-N
  GI50: 0.105 µM (active)
NCI-H460
  GI50: 1.36 µM (inactive)
HT-29
  GI50: 1.14 µM (inactive)
DU-145
  GI50: 0.791 µM (active)
OVCAR-3
  GI50: 0.149 µM (active)
MDA-MB-435
  GI50: 0.115 µM (active)
SF-539
  GI50: 0.381 µM (active)
M14
  GI50: 0.993 µM (active)
LOX IMVI
  GI50: 2.01 µM (inactive)
HCT-116
  GI50: 0.438 µM (active)
HOP-92
  GI50: 6.56 µM (inactive)
IGROV-1
  GI50: 1.45 µM (inactive)
SNB-75
  GI50: 0.701 µM (active)
HOP-62
  GI50: 1.56 µM (inactive)
NCI-H522
  GI50: 1.34 µM (inactive)
SF-295
  GI50: 1.58 µM (inactive)
SK-MEL-5
  GI50: 0.687 µM (active)
SF-268
  GI50: 1.36 µM (inactive)

## CC(=O)Nc1ccc2oc(=O)c3ccccc3c2c1
Hs-578T
  GI50: > 100 µM (inactive)
NCI-H23
  GI50: > 100 µM (inactive)
EKVX
  GI50: > 100 µM (inactive)
OVCAR-5
  GI50: > 100 µM (inactive)
NCI-H226
  GI50: > 100 µM (inactive)
UACC-257
  GI50: > 100 µM (inactive)
SK-MEL-2
  GI50: > 100 µM (inactive)
T47D
  GI50: > 100 µM (inactive)
SW-620
  GI50: > 100 µM (inactive)
OVCAR-8
  GI50: > 100 µM (inactive)
MOLT-4
  GI50: > 100 µM (inactive)
U-251
  GI50: > 100 µM (inactive)
NCI/ADR-RES
  GI50: > 100 µM (inactive)
RPMI-8226
  GI50: > 100 µM (inactive)
PC-3
  GI50: > 100 µM (inactive)
UO-31
  GI50: > 100 µM (inactive)
786-0
  GI50: > 100 µM (inactive)
HCC 2998
  GI50: > 100 µM (inactive)
CAKI-1
  GI50: > 100 µM (inactive)
OVCAR-4
  GI50: > 100 µM (inactive)
COLO 205
  GI50: > 100 µM (inactive)
BT-549
  GI50: > 100 µM (inactive)
KM12
  GI50: > 100 µM (inactive)
CCRF-CEM
  GI50: > 100 µM (inactive)
RXF 393
  GI50: > 100 µM (inactive)
Malme-3M
  GI50: > 100 µM (inactive)
SN12C
  GI50: > 100 µM (inactive)
SK-MEL-28
  GI50: > 100 µM (inactive)
HL-60
  GI50: > 100 µM (inactive)
HCT-15
  GI50: > 100 µM
K562
  GI50: > 100 µM (inactive)
A549
  GI50: > 100 µM (inactive)
SNB-19
  GI50: > 100 µM (inactive)
SR
  GI50: > 100 µM (inactive)
MDA-N
  GI50: > 100 µM (inactive)
NCI-H460
  GI50: > 100 µM (inactive)
UACC-62
  GI50: 50.9 µM (inactive)
A498
  GI50: > 100 µM (inactive)
ACHN
  GI50: > 100 µM (inactive)
HT-29
  GI50: > 100 µM (inactive)
DU-145
  GI50: > 100 µM (inactive)
OVCAR-3
  GI50: > 100 µM (inactive)
MDA-MB-435
  GI50: > 100 µM (inactive)
SF-539
  GI50: > 100 µM (inactive)
MCF7
  GI50: > 100 µM (inactive)
M14
  GI50: > 100 µM (inactive)
LOX IMVI
  GI50: > 100 µM (inactive)
HCT-116
  GI50: > 100 µM (inactive)
HOP-92
  GI50: > 100 µM (inactive)
IGROV-1
  GI50: > 100 µM (inactive)
SNB-75
  GI50: > 100 µM (inactive)
HOP-62
  GI50: > 100 µM (inactive)
NCI-H522
  GI50: > 100 µM (inactive)
SF-295
  GI50: > 100 µM (inactive)
SK-MEL-5
  GI50: > 100 µM (inactive)
SF-268
  GI50: > 100 µM (inactive)
